Assay results taken from the supplement of paper PMC10307832.

What was measured:
Experiment in all cases: relative viability (nuclei count vs DMSO), 5 days (fraction); higher = more cells survive
BGJ398 + AZD7762 = compound: CCN1CCN(c2ccc(Nc3cc(N(C)C(=O)Nc4c(Cl)c(OC)cc(OC)c4Cl)ncn3)cc2)CC1 [BGJ398] + NC(=O)Nc1cc(-c2cccc(F)c2)sc1C(=O)N[C@H]1CCCNC1 [AZD7762] (partner 0.2 µM)
In short: (§1)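 Lung cancer cell lines in 1536-well plates were dosed by pin tool the day after seeding, either with one drug alone or with a fixed anchor-drug dose plus five library-drug doses (not always all listed) in √10 steps. After 5 days, cells were fixed and their nuclei stained in one step (final 0.05% Triton X-100, 1% formaldehyde, 1 ug/ml Hoechst), then counted on 4× images. Relative viability is the nuclei count in treated wells divided by that in vehicle wells. Values are medians of duplicate plates.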

BGJ398 + Bortezomib = compound: CCN1CCN(c2ccc(Nc3cc(N(C)C(=O)Nc4c(Cl)c(OC)cc(OC)c4Cl)ncn3)cc2)CC1 [BGJ398] + CC(C)C[C@H](NC(=O)[C@H](Cc1ccccc1)NC(=O)c1cnccn1)B(O)O [Bortezomib] (partner 0.002 µM)
In short: as §1

[1] = compound: C1=CC2=NC=CN=C2C=C1/C=C/3\C(=O)NC(=O)S3 + CC(C)C[C@H](NC(=O)[C@H](Cc1ccccc1)NC(=O)c1cnccn1)B(O)O [Bortezomib] (partner 0.002 µM)
In short: as §1

[2] = compound: C1=CC2=NC=CN=C2C=C1/C=C/3\C(=O)NC(=O)S3 + C[C@@H](Oc1cc(-c2cnn(C3CCNCC3)c2)cnc1N)c1c(Cl)ccc(F)c1Cl [Crizotinib] (partner 1 µM)
In short: as §1

Cell Line | relative viability (BGJ398 + AZD7762; first compound 0.01 µM) | relative viability (BGJ398 + AZD7762; first compound 0.03162 µM) | relative viability (BGJ398 + AZD7762; first compound 0.1 µM) | relative viability (BGJ398 + AZD7762; first compound 0.3162 µM) | relative viability (BGJ398 + AZD7762; first compound 1 µM) | relative viability (BGJ398 + Bortezomib; first compound 0.01 µM) | relative viability (BGJ398 + Bortezomib; first compound 0.1 µM) | relative viability (BGJ398 + Bortezomib; first compound 0.3162 µM) | relative viability (BGJ398 + Bortezomib; first compound 1 µM) | relative viability ([1]; first compound 0.02 µM) | relative viability ([1]; first compound 0.06325 µM) | relative viability ([1]; first compound 0.2 µM) | relative viability ([1]; first compound 0.6325 µM) | relative viability ([1]; first compound 2 µM) | relative viability ([2]; first compound 0.02 µM) | relative viability ([2]; first compound 0.06325 µM) | relative viability ([2]; first compound 0.2 µM) | relative viability ([2]; first compound 0.6325 µM) | relative viability ([2]; first compound 2 µM) | relative viability (BGJ398 + Bortezomib; first compound 0.03162 µM)
H3255 | 0.837 | 0.681 | 1.01 | 0.78 | 0.826 | 0.712 | 0.712 | 0.439 | 0.69 | 0.869 | 0.91 | 0.778 | 0.682 | 0.741 | 0.851 | 0.929 | 0.746 | 0.916 | 0.886 | –
NCI-H1993 | 0.953 | 0.85 | 0.593 | 0.94 | 0.803 | 1.17 | 1.2 | 1.23 | 1.19 | 0.892 | 1.02 | 1.05 | 0.952 | 0.724 | 0.914 | 1.03 | 0.806 | 0.848 | 0.668 | 0.753
NCI-H1734 | 0.504 | 0.56 | 0.538 | 0.554 | 0.624 | 0.95 | 0.933 | 0.805 | 0.825 | 0.761 | – | 1 | 0.919 | 0.747 | 0.665 | – | 0.808 | 0.637 | 0.611 | 0.889
HOP-62 | 0.651 | 0.703 | 0.829 | 0.601 | 0.916 | 0.726 | 1.12 | 0.585 | 0.788 | 0.908 | 0.819 | 1.07 | 0.757 | 0.707 | 1.1 | 0.953 | 1.03 | 0.93 | 0.911 | 1.05
LOU-NH91 | 0.753 | 0.779 | 0.752 | 0.664 | 0.762 | 0.483 | 0.547 | 0.54 | 0.472 | 0.415 | 0.517 | 0.512 | 0.562 | 0.513 | 0.717 | 0.761 | 0.745 | 0.755 | 0.72 | 0.498
ChaGo-K-1 | 0.904 | 0.85 | 0.903 | 0.898 | 0.881 | 1.12 | 0.957 | 0.896 | 0.604 | 1.05 | 1.65 | 1.16 | 0.952 | 0.868 | 1.02 | 0.613 | 1.12 | 1.07 | 1.02 | 0.928
PC-14 | 0.403 | – | 0.387 | 0.176 | 0.249 | 0.952 | 0.791 | 0.868 | 0.878 | 0.726 | 0.816 | 0.81 | 0.882 | 0.81 | 0.821 | 0.954 | 0.869 | 0.972 | 0.864 | 0.85
NCI-H1437 | 1.13 | 1.23 | 1.14 | 1.17 | 1.19 | 0.521 | 0.412 | 0.536 | 0.462 | 0.475 | 0.647 | 0.564 | 0.475 | 0.408 | 0.829 | 0.901 | 0.805 | 0.917 | 1.02 | 0.56
NCI-H460 | 0.73 | 0.655 | 0.593 | 0.53 | 0.621 | 1.17 | 1.45 | 1.04 | 1.06 | 1.01 | 1.05 | 1.03 | 0.932 | 0.942 | 0.783 | 1.22 | 0.959 | 0.831 | 0.853 | 1.23
NCI-H1666 | 0.95 | 0.784 | 0.866 | 0.703 | 0.728 | 0.88 | 0.793 | 0.816 | 0.629 | 0.834 | 0.854 | 1.06 | 0.649 | 0.673 | 0.992 | 1.02 | 1.05 | 1.01 | 1.07 | 0.774
NCI-H1651 | 0.465 | 0.442 | 0.478 | 0.374 | 0.471 | 0.909 | 1.05 | 1 | 0.911 | 0.956 | 0.637 | 0.949 | 0.96 | 0.893 | 0.886 | 0.677 | 0.865 | 0.825 | 0.842 | 0.932
NCI-H1755 | 0.487 | 0.496 | 0.384 | 0.339 | 0.399 | 1 | 0.975 | 0.921 | 0.875 | 0.927 | 1.05 | 0.961 | 0.917 | 0.859 | 0.747 | 0.786 | 0.86 | 0.863 | 0.817 | 0.872
HARA | 0.429 | 0.418 | 0.461 | 0.373 | 0.334 | 1.15 | 1.13 | 1.08 | 0.978 | 1.11 | 1.18 | 1.26 | 1.09 | 1.15 | 0.973 | 1.06 | 1.09 | 1.01 | 1.21 | 1.05
NCI-H596 | 1.1 | 0.993 | 0.893 | 0.911 | 0.799 | 0.988 | 0.96 | 1.04 | 0.769 | 1.36 | 1.06 | 1.17 | 0.876 | – | 0.976 | 0.87 | 1.06 | 0.989 | 1 | 0.72
